# Values joined by “and” are separate entries in the source; they are usually repeats but may differ in a detail not shown here. Equal entries are not always repeated. Where two headings read alike, the source gives them in different places.
# Experiments:
# [1] = arm 2
# [2] = format: in vivo, human; settings: for AUC∞ geometric mean ratio test/reference (90 % CI) / C max geometric mean ratio test/reference (90 % CI): substrate + enzalutamide 160 mg/day vs substrate + placebo-to-match, n = 14
# CYP2C19 = settings: human hepatic microsomes; cited from earlier work
# CYP2B6 = settings: human hepatic microsomes; cited from earlier work
# CYP2C8 = target: T1, CYP2C8 (Homo sapiens, UniProt P10632); settings: human hepatic microsomes; cited from earlier work
# T1 sequence (P10632 1-490): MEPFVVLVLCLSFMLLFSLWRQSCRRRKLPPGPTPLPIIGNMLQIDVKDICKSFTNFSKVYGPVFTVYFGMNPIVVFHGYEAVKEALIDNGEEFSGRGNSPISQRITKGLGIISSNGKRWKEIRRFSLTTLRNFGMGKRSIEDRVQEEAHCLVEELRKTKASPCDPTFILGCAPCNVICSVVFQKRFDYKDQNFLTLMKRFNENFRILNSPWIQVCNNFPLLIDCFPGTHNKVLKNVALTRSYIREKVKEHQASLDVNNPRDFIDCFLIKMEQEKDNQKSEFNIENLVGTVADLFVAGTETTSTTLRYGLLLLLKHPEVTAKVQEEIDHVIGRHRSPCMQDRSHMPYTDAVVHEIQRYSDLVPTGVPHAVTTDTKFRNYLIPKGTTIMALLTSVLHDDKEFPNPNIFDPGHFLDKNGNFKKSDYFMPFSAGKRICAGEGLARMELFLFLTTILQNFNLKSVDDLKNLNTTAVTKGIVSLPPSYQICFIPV
# CYP2C9 = settings: human hepatic microsomes; cited from earlier work
# [3] = format: in vivo, human; settings: for t max: median [range]; for AUCτ: one 24-h dosing interval at steady state, 14 patients, enzalutamide 160 mg once daily for 49 days
# [4] = cited from earlier work
# [5] = cited from earlier work; remark: listed apart in the source
# [6] = Population pharmacokinetic modeling and simulation; set-up: species or system human; settings: with gemfibrozil vs enzalutamide alone
# [7] = format: in vivo, human
# [8] = cited from earlier work; remark: listed apart in the source
# CYP3A4 [9] = settings: human primary hepatocyte cultures; cited from earlier work
# CYP3A4 [10] = experiment: Clinical effect of enzalutamide on CYP3A4; settings: enzalutamide 160 mg once daily; oral midazolam
# [11] = patients with mCRPC; cited from earlier work
# [12] = enzalutamide 160 mg/day vs placebo-to-match
# [13] = 14 patients taking enzalutamide 160 mg once daily for 49 days, mean ± standard deviation
# [14] = 14 patients taking enzalutamide 160 mg once daily for 49 days
# [15] = with itraconazole vs enzalutamide alone
# [16] = with itraconazole vs enzalutamide alone, observed data
compound,measurement,setting,value
Cc1ccc(C)c(OCCCC(C)(C)C(=O)O)c1 [gemfibrozil],adverse event above NCI-CTCAE grade 1 with possible relationship,[1],grade 2 flatulence in one subject
"COc1ccc2[nH]c([S+]([O-])Cc3ncc(C)c(OC)c3C)nc2c1 (stereo not drawn) [omeprazole, reference compound]",decrease in AUC∞ by enzalutamide,[2]; [12],70%
same,AUC∞ geometric mean ratio test/reference (90 % CI),[2],0.30 (0.24–0.36)
same,C max geometric mean ratio test/reference (90 % CI),[2],0.38 (0.26–0.54)
"CC(O)c1ccc(CCOc2ccc(CC3SC(=O)NC3=O)cc2)nc1 (stereo not drawn) [Hydroxy-pioglitazone (M-IV), Hydroxy-pioglitazone]",decrease in AUC∞ by enzalutamide,[2]; [12],37%
same,AUC∞ geometric mean ratio test/reference (90 % CI),[2],0.63 (0.52–0.77)
same,C max geometric mean ratio test/reference (90 % CI),[2],0.60 (0.52–0.70)
CC1(C)C(=O)N(c2ccc(C#N)c(C(F)(F)F)c2)C(=S)N1c1ccc(C(=O)O)c(F)c1 [Carboxylic acid metabolite],inhibition of CYP2C19,CYP2C19,may act as inhibitors
same,inhibition of CYP2B6,CYP2B6,lesser inhibitory effects
same,inhibition of CYP2C8,CYP2C8,may act as inhibitors
same,inhibition of CYP2C9,CYP2C9,lesser inhibitory effects
same,C max,[3]; [13],8860 ± 6520 ng/mL
same,C trough,[3]; [13],6320 ± 5190 ng/mL
same,t max,[3]; [14],3.5 [0.0–24.0] h
same,AUCτ,[3]; mean ± standard deviation,193 ± 144 µg·h/mL
same,pharmacological activity (primary and secondary pharmacodynamics),[4],pharmacologically inactive
same,plasma concentrations lower than enzalutamide,[5]; circulating concentrations,approximately 25%
"CCc1ccc(CCOc2ccc(CC3SC(=O)NC3=O)cc2)nc1 (stereo not drawn) [pioglitazone, reference compound]",increase in AUC∞ by enzalutamide,[2]; [12],20%
same,AUC∞ geometric mean ratio test/reference (90 % CI),[2],1.20 (0.98–1.47)
same,C max geometric mean ratio test/reference (90 % CI),[2],0.82 (0.67–1.01)
COc1ccc2nc([S+]([O-])Cc3ncc(CO)c(OC)c3C)[nH]c2c1 (stereo not drawn) [5-Hydroxy-omeprazole],decrease in AUC∞ by enzalutamide,[2]; [12],54%
same,AUC∞ geometric mean ratio test/reference (90 % CI),[2],0.46 (0.39–0.53)
same,C max geometric mean ratio test/reference (90 % CI),[2],0.64 (0.50–0.83)
CC1(C)C(=O)N(c2ccc(C#N)c(C(F)(F)F)c2)C(=S)N1c1ccc(C(N)=O)c(F)c1 [N-desmethyl enzalutamide],inhibition of CYP2C19,CYP2C19,may act as inhibitors
same,decrease in AUC∞,[6],25%
same,inhibition of CYP2B6,CYP2B6,lesser inhibitory effects
same,decrease in Cmax,[7]; with gemfibrozil vs enzalutamide alone,44%
same,decrease in AUC18 d,"[7]; with gemfibrozil vs enzalutamide alone, observed data",67%
same,decrease in AUC18 d,[7]; [15],4%
same,decrease in Cmax,[7]; [15],14%
same,increase in AUC∞,[7]; [16],1.21 fold
same,inhibition of CYP2C8,CYP2C8,may act as inhibitors
same,inhibition of CYP2C9,CYP2C9,lesser inhibitory effects
same,C max,[3]; [13],12700 ± 3770 ng/mL
same,C trough,[3]; [13],10600 ng/mL and 10600 ± 3270 ng/mL
same,t max,[3]; [14],4.0 [0.0–24.0] h
same,AUCτ,[3]; mean ± standard deviation,278 ± 85.5 µg·h/mL
same,circulating plasma concentrations relative to enzalutamide,[5],approximately the same plasma concentrations as enzalutamide
"Cc1ncc2n1-c1ccc(Cl)cc1C(c1ccccc1F)=NC2 [midazolam, reference compound]",decrease in AUC∞ by enzalutamide,[2]; [12],86%
same,AUC∞ geometric mean ratio test/reference (90 % CI),[2],0.14 (0.12–0.17)
same,C max geometric mean ratio test/reference (90 % CI),[2],0.23 (0.20–0.27)
"OCc1ncc2n1-c1ccc(Cl)cc1C(c1ccccc1F)=NC2 [1-Hydroxy-midalozam, 1-hydroxy-midazolam]",decrease in AUC∞ by enzalutamide,[2]; [12],76%
same,AUC∞ geometric mean ratio test/reference (90 % CI),[2],0.24 (0.20–0.28)
same,C max geometric mean ratio test/reference (90 % CI),[2],0.29 (0.24–0.35)
"CNC(=O)c1ccc(N2C(=S)N(c3ccc(C#N)c(C(F)(F)F)c3)C(=O)C2(C)C)cc1F [Enzalutamide, enzalutamide, reference compound]",aqueous solubility,[8],≤ 2.0 µg/mL
same,induction of CYP3A4 messenger RNA and enzymatic activity,CYP3A4 [9],may cause increases in messenger RNA and enzymatic activity for CYP3A4
same,inhibition of CYP2C19,CYP2C19,may act as inhibitors
same,CYP3A4 induction classification,CYP3A4 [10],strong inducer
same,maximum tolerated dose,[11],240 mg/day
same,increase in AUC∞,[6],4.26 fold
same,inhibition of CYP2B6,CYP2B6,lesser inhibitory effects
same,increase in AUC∞,[7]; [16],1.41 fold
same,inhibition of CYP2C8,CYP2C8,may act as inhibitors
same,inhibition of CYP2C9,CYP2C9,lesser inhibitory effects
same,C trough,[3]; [13],12000 ± 3510 ng/mL
same,CL/F,[3]; [13],0.52 ± 0.09 L/h
same,concentration at 49 d,"[3]; human, plasma, oral, 160 mg once daily",12000 ng/mL
same,Cmax,"[3]; human, plasma, oral, 160 mg, C max, 14 patients taking enzalutamide 160 mg once daily for 49 days, mean ± standard deviation",~17000 ng/mL
"CC(=O)C[C@@H](c1ccccc1)c1c(O)c2ccccc2oc1=O [S-warfarin, reference compound]",decrease in AUC∞ by enzalutamide,[2]; [12],56%
CC(=O)C[C@@H](c1ccccc1)c1c(O)c2ccc(O)cc2oc1=O [7-Hydroxy-S-warfarin],decrease in AUC∞ by enzalutamide,[2]; [12],53%
same,AUC∞ geometric mean ratio test/reference (90 % CI),[2],0.47 (0.35–0.63)
same,C max geometric mean ratio test/reference (90 % CI),[2],0.83 (0.71–0.99)
"CC(=O)C[C@H](c1ccccc1)c1c(O)c2ccccc2oc1=O [R-warfarin, reference compound]",decrease in AUC∞ by enzalutamide,[2]; [12],45%

# — paper PMC4580724 (Clinical Pharmacokinetics, 2015)
